Laboratory results from patent publication US12454511B2, “6-methoxy-3,4-dihydro-1H-isoquinolin compounds” (Eli Lilly and Company, priority 2020, dated 2025).
Counter-ions that a name gives are not always drawn.

What was measured:
human GIPR = target: T1, human GIPR (Homo sapiens, UniProt P48546); assay: Human GIP Receptor Potentiator Assay (cAMP formation, HTRF, in presence of EC20 dose of GIP(1-42)); format: cell-based; settings: HEK293 GIPR cell line intracellular cAMP response, with 25 pM GIP(1-42); for Emax: percent top of maximal response; for EC50: relative EC50, read-out: EC50 (nM) and SEM (n)
T1 construct: expressed in transfected cells; host or cells: HEK293 clonal cell line
T1 sequence (P48546 22-466): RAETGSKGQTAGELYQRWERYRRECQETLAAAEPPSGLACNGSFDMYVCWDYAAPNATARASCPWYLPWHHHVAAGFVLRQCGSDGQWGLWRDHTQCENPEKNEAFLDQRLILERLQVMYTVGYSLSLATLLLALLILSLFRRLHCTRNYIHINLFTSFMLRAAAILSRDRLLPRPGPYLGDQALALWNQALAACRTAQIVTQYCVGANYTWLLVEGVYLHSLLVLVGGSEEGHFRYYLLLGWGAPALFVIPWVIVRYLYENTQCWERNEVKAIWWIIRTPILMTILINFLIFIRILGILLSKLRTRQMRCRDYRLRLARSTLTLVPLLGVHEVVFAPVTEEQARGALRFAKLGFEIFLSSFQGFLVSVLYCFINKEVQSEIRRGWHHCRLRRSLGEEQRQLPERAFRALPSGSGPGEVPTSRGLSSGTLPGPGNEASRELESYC
Description: Human GIP Receptor Potentiator Assay
GIP Receptor (GIPR) functional activity is determined using cAMP formation in an HEK293 clonal cell line expressing human GIPR (NCBI accession number NP_000155). […] The hGIPR receptor expressing cells are treated with 25 pM of GIP(1-42) (Labcyte Echo direct dilution) and a dose response of test compound (10 point concentration-response curve in DMSO, 3-fold Labcyte Echo direct dilution, 384 well plate Corning Cat #3570) in DMEM (Gibco Cat #31053) supplemented with 1× GlutaMAX™ (Gibco Cat #35050), 0.1% bovine casein (Sigma C4765-10ML), 250 μM IBMX (3-Isobutyl-1-methylxanthine, Acros Cat #228420010) and 20 mM HEPES (Gibco Cat #15630) in a 20 μL assay volume (final DMSO concentration is 1.0%). After a 30 min incubation at 37° C., the resulting increase in intracellular cAMP is quantitatively determined using the CisBio cAMP Dynamic 2 HTRF Assay Kit (62AM4PEJ). Briefly, cAMP levels within the cell are detected by adding the cAMP-d2 conjugate in cell lysis buffer (10 μL) followed by the antibody anti-cAMP-Eu^3+-Cryptate, also in cell lysis buffer (10 μL). The resulting competitive assay is incubated for at least 60 min at room temperature, then detected using a PerkinElmer Envision® instrument with excitation at 320 nm and emission at 665 nm and 620 nm. Envision units (emission at 665 nm/620 nm*10,000) are inversely proportional to the amount of cAMP present and are converted to nM cAMP per well using a cAMP standard curve. The amount of cAMP generated (nM) in each well is converted to a percent of the maximal response observed. A relative EC50 value and percent top (Emax) are derived by non-linear regression analysis using the percent maximal response vs. the concentration of compound added, fitted to a four-parameter logistic equation. The EC50 and Emax data when the compounds of Examples 1 and 3 are tested in the cAMP assay described above are shown in Table 1.

human GLP-1R = target: T2, human GLP-1R (Homo sapiens, UniProt P43220); assay: Human GLP-1 Receptor Potentiator Assay (cAMP formation, HTRF, in presence of EC20 dose of oxyntomodulin); format: cell-based; settings: HEK293 GLP-1R cell line intracellular cAMP response, with 5 nM oxyntomodulin
T2 construct: expressed in transfected cells; host or cells: HEK293 clonal cell line
Description: Human GLP-1 Receptor Potentiator Assay
GLP-1 Receptor (GLP-1R) functional activity is determined using cAMP formation in an HEK293 clonal cell line expressing human GLP-1R (NCBI accession number NP_002053). […] After 60 min incubation at room temperature, the resulting increase in intracellular cAMP is quantitatively determined using a custom CisBio cAMP Hybrid HTRF Assay Kit (60MISZZZ). Briefly, cAMP levels within the cell are detected by adding the Dynamic 2 cAMP-d2 conjugate in cell lysis buffer (10 μL) followed by the HiRange antibody anti-cAMP-Eu^3+-Cryptate, also in cell lysis buffer ([…]). The resulting competitive assay is incubated for at least 60 min at RT, then detected using a PerkinElmer Envision® instrument with excitation at 320 nm and emission at 665 nm and 620 nm. […]

T2 sequence (P43220 24-463): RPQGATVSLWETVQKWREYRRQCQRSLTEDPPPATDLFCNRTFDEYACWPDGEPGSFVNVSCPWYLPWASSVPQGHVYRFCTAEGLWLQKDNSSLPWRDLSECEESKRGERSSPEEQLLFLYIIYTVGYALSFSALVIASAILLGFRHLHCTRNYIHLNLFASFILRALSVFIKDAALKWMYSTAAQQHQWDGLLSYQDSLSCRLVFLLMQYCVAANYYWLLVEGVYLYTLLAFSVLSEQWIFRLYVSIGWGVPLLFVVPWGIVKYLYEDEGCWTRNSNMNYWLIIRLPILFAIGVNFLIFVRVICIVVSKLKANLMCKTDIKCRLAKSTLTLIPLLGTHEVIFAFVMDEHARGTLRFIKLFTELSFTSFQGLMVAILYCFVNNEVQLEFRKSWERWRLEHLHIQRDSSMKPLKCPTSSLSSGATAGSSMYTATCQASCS

Emax (human GIPR) [%] | EC50 (human GIPR) [nM] | Emax (human GLP-1R; percent top of maximal response) [%] | EC50 (human GLP-1R; relative EC50, read-out: EC50 (nM) and SEM (n)) [nM] | SMILES
91 ± 8 | 37.5 |  |  | COc1ccc2c(c1-c1cc(C)c(O)c(F)c1)CCN(C(C)c1ccc(C(C)C)cc1)[C@@H]2C (single isomer, unassigned) [Example 3, hydrochloride]
101 ± 7 | 11.9 |  |  | COc1ccc2c(c1-c1cc(F)c(O)c(NCC(C)C)c1)CCN(C(C)c1ccc(C(C)C)cc1)[C@@H]2C (single isomer, unassigned) [Example 1, dihydrochloride]
 |  | 181 ± 35 | 15.7 | COCC1Cc2c(ccc(OC)c2-c2ccc(O)c(C)c2)CN1Cc1ccc(C(C)C)cc1O (single isomer, unassigned) [Example 2, 4-[2-[(2-Hydroxy-4-isopropyl-phenyl)methyl]-6-methoxy-3-(methoxymethyl)-3,4-dihydro-1H-isoquinolin-5-yl]-2-methyl-phenol; hydrochloride]
